Reference: patent US7872005B2, “2-substituted heteroaryl compounds” (Synta Pharmaceuticals Corporation, priority 2004, dated 2011)

Columns and labels:
[1] = system: adjuvant arthritis (AA) in female Lewis rats; assay: Treatment of adjuvant arthritis in rats; format: in vivo, rat; conditions: oral, once a day for 12 days; dose-dependent
Method: A heterocyclic compound can also be evaluated by animal studies. For example, one of such studies involves the ability of a test compound to treat adjuvant arthritis (i.e., a IL-12 overproduction related disorder) in rats.
Treatment of adjuvant arthritis in rats: Adjuvant arthritis (AA) was induced in female Lewis rats by the intracutaneous injection (base of the tail) of 0.1 mL of a 10 mg/mL bacterial suspension made from ground, heat-killed Mycobacterium tuberculosis H37Ra suspended in incomplete Freund's adjuvant. Rats were given a test compound orally once a day for 12 days, starting the day following the induction. The development of polyarthritis was monitored daily by macroscopic inspection and assignment of an arthritis index to each animal, during the critical period (days 10 to 25 post-immunization).
The intensity of polyarthritis was scored according to the following scheme: (a) Grade each paw from 0 to 3 based on erythema, swelling, and deformity of the joints: 0 for no erythema or swelling; 0.5 if swelling is detectable in at least one joint; 1 for mild swelling and erythema; 2 for swelling and erythema of both tarsus and carpus; and 3 for ankylosis and bony deformity. Maximum score for all 4 paws was thus 12. […]

[2] = system: colitis in C.B-17 SCID mice; assay: CD4+ CD45Rb high T cell-reconstituted SCID colitis model mice; format: in vivo, mouse
Method: Treatment of Crohn's disease in CD4^+ CD45Rb^high T cell-reconstituted SCID colitis model mice: Spleen cells were prepared from normal female BALB/c mice. For cell purification, the following anti-mouse antibodies were used to label non-CD4^+ T cells: B220 (RA3-6B2), CD11b (M1/70), and CD8α (53-6.72). All antibodies were obtained from BioSource (Camarillo, Calif.). M450 anti-rat IgG-coated magnetic beads (Dynal, Oslo, Norway) were used to bind the antibodies and negative selection was accomplished using an MPC-1 magnetic concentrator. The enriched CD4^+ cells were then labeled for cell sorting with FITC-conjugated CD45RB (16A, Pharmingen, San Diego, Calif.) and PE-conjugated CD4 (CT-CD4, Caltag, Burlingame, Calif.). CD4^+ CD45RB^high cells were operationally defined as the upper 40% of CD45Rb-staining CD4^+ cells and sorted under sterile conditions by flow cytometry. Harvested cells were resuspended at 4×10^6/mL in PBS and injected 100 μL intraperitoneally into female C.B-17 SCID mice. Pyrimidine compounds of this invention (e.g., Compound 12) and/or vehicle was orally administered once a day, 5 days per week, starting the day following the transfer. The transplanted SCID mice were weighed weekly and their clinical condition was monitored.
Colon tissue samples were fixed in 10% buffered formalin and embedded in paraffin. Sections (4 μm) collected from ascending, transverse, and descending colon were cut and stained with hematoxylin and eosin. The severity of colitis was determined based on histological examination of the distal colon sections, whereby the extent of colonic inflammation was graded on a scale of 0-3 in each of four criteria: crypt elongation, cell infiltration, depletion of goblet cells, and the number of crypt abscesses.
LP lymphocytes were isolated from freshly obtained colonic specimens. After removal of payer's patches, the colon was washed in Ca/Mg-free HBSS, cut into 0.5 cm pieces and incubated twice in HBSS containing EDTA (0.75 mM), DTT (1 mM), and antibiotics (amphotericin 2.5 μg/mL, gentamicin 50 μg/mL from Sigma) at 37° C. for 15 min. Next, the tissue was digested further in RPMI containing 0.5 mg/mL collagenase D, 0.01 mg/mL DNase I (Boehringer Manheim), and antibiotics at 37° C. LP cells were then layered on a 40-100% Percoll gradient (Pharmacia, Uppsala, Sweden), and lymphocyte-enriched populations were isolated from the cells at the 40-100% interface.
To measure cytokine production, 48-well plates were coated with 10 μg/mL murine anti-CD3ε antibody (145-2C11) in carbonate buffer (PH 9.6) overnight at 4° C. […] Murine IFNγ was measured using an ELISA kit from Endogen (Cambridge, Mass.), according to the manufacturer's instructions.

Cc1cccc(/C=N/Nc2cc(N3CCOCC3)nc(CCOC(=O)Nc3cccc(C(F)(F)F)c3)n2)c1 [Compound 12, (3-Trifluoromethyl-phenyl)-carbamic acid 2-{4-[N′-(3-methyl-benzylidene)-hydrazino]-6-morpholin-4-yl-pyrimidin-2-yl}-ethyl ester]
arthritic score [1]: reduced the arthritic score | development of polyarthritis [1]: delayed the development of polyarthritis | IFNγ production by LP cells in response to anti-CD3 and anti-CD28 antibody ([2]; LP cells from treated mice, ex vivo, 48 h culture): greatly diminished the production | colonic inflammation (histological analysis) ([2]; oral, once a day, 5 days per week, compared to vehicle control): reduced colonic inflammation | colon-to-body weight ratio ([2]; oral, consistent with histological score): attenuation | suppressive effect on colonic inflammation at 10 mg/kg ([2]; oral, dose of 10 mg/kg): substantial reduction
